Data set [1] in a line: in vitro. The settings on record: human.
In data set [2] the test system is lentiviral vectors pseudotyped with the SARS-CoV-2 Spike protein (CoV-2 LV). The experiment in a line: microbe, parasite or virus in culture. Format: cell-based. To be noted: Severe acute respiratory syndrome coronavirus 2; 293-ACE2 cells (Table 1).
The subject of data set [3] is A549-ACE2. The settings on record: A549 cell line, within the 0-50µM range.
The nature of data set [4]: in vitro. The settings on record: human. This is another data set of the same source.
The test system of data set [5] is HEK293T-ACE2. The settings on record: HEK-293T cell line, within the 0-50µM range.
In data set [6] the test system is Calu3. To be noted: Calu3 cell line, within the 0-50µM range.
The subject of data set [7] is VSVg pseudotyped LV. It counts as cell-based.
The test system of data set [8] is SARS-CoV-2 reference strain. The experiment in a line: microbe, parasite or virus in culture. To be noted: Severe acute respiratory syndrome coronavirus 2, Calu-3. It counts as cell-based.
In data set [9] the test system is Caco2. The settings on record: Caco2 cell line, within the 0-50µM range.
For data set [10], the target named is SARS-CoV-2 S-RBD(His)6 and human ACE2-Biot interaction (Severe acute respiratory syndrome coronavirus 2, UniProt P0DTC2). The data set is described as follows: AlphaLISA competition assay of the S-RBD/ACE2 interaction. To be noted: at 25 µM of drug; 3 nM of each protein. It counts as binding, SARS-CoV-2 / human. (Alpha assays give light when donor and acceptor beads are brought close together.)

Data set [11] relates to SARS-CoV-2. The experiment in a line: Antiviral activity summarised over all the cell lines. It counts as cell-based.
Data set [12] relates to SARS-CoV-2 reference strain. The data set is described as follows: microbe, parasite or virus in culture. Format: cell-based.
The nature of data set [13]: in vitro. To be noted: human. This is another data set of the same source.

Like-named read-outs stand apart in the source and are kept apart here.

Turning to `C(=C\c1nc2ccccc2s1)/c1cccc(N(c2cccc(/C=C/c3nc4ccccc4s3)c2)c2cccc(/C=C/c3nc4ccccc4s3)c2)c1` [TP m 3BTZ compound, Tris {3-(2-(benzothiazole-2-yl)vinylphenyl}amine)], the CC50 in data set [1], in data set [4] and in data set [13] was over 50000 nM each time. Further, the IC50 is 1000 nM in [2]; 5000 nM in data set [8] (Calu3 cells (Table 1), read-out: IC50); about 1000 nM in data set [8] (Calu3 cells, SARS-CoV-2 reference strain, 24 hours, read-out: concentration leading to 50% inhibition of the viral replication); 250 to 5000 nM in [11] (Severe acute respiratory syndrome coronavirus 2, among all the cell lines); 2500 nM in data set [12] (Severe acute respiratory syndrome coronavirus 2, A549-ACE2, A 549-ACE2 cells (Table 1)). The “cytotoxicity (MTT assay)” value in [3], in data set [5], in data set [6] and in data set [9] was “no or poor cytoxoxicity” throughout. Moreover, the “effect on the VSVg LVs infectivity” value in [7] was “without significant effect”. Moreover, the “inhibition of the formation of the RBD/ACE2 complex (AlphaLISA)” value in data set [10] was 50%. For the same compound, in data set [11] (among all the cell lines), the selectivity indexes was over 10. In data set [11] (based on apparent IC50 and CC50 in the different cell lines), the “selectivity index (SI)” value is given as “higher than 50”. In addition, the “inhibition of the viral replication” value in data set [12] (A549-ACE2 cells, SARS-CoV-2 reference strain, 24 hours) is on record as “induced an inhibition of the viral replication”.

(Values after patent EP4173621A1 (priority 2021, dated 2023).)
